Data on 32 compounds can be found in patent US20240391926A1, “SPIROINDOLINONE COMPOUNDS AS Kv1.3 POTASSIUM SHAKER CHANNEL BLOCKERS” (D.E. Shaw Research, LLC, priority 2021, published 2024).

For this assay, the target named is T1, Kv1.3 potassium channel (Homo sapiens, UniProt P22001).
T1 construct: expressed in transfected cells
Briefly: Kv1.3 potassium channel blocker activity, automated whole-cell patch clamp (Patchliner) in CHO-K1 cells stably expressing Kv1.3. To be noted: 30 nM-100 μM. The assay is classed as cell-based. Here is the method:
This assay is used to evaluate the disclosed compounds' activities as Kv1.3 potassium channel blockers.
CHO-K1 cells stably expressing Kv1.3 were grown in DMEM containing 10% heat-inactivated FBS, 1 mM sodium pyruvate, 2 mM L-glutamine, and G418 (500 μg/ml). Cells were grown in culture flasks at 37° C. in a 5% CO2-humidified incubator.
The cells were bathed in an extracellular solution containing 140 mM NaCl, 4 mM KCl, 2 mM CaCl2), 1 mM MgCl2, 5 mM glucose, 10 mM HEPES; pH adjusted to 7.4 with NaOH; 295-305 mOsm. The internal solution contained 50 mM KCl, 10 mM NaCl, 60 mM KF, 20 mM EGTA, 10 mM HEPES; pH adjusted to 7.2 with KOH; 285 mOsm. All compounds were dissolved in DMSO at 30 mM. Compound stock solutions were freshly diluted with external solution to concentrations of 30 nM, 100 nM, 300 nM, 1 μM, 3 μM, 10 μM, 30 μM and 100 μM. The highest content of DMSO (0.3%) was present in 100 μM.
The currents were evoked by applying 100 ms depolarizing pulses from −90 mV (holding potential) to +40 mV were applied with 0.1 Hz frequency. Control (compound-free) and compound pulse trains for each compound concentration applied contained 20 pulses. 10-second breaks were used between pulse trains (see Table A below).
Whole-cell current recordings and compound application were enabled by means of an automated patch clamp platform Patchliner (Nanion Technologies GmbH). EPC 10 patch clamp amplifier (HEKA Elektronik Dr. Schulze GmbH) along with Patchmaster software (HEKA Elektronik Dr. Schulze GmbH) was used for data acquisition. Data were sampled at 10 kHz without filtering. Passive leak currents were subtracted online using a P/4 procedure (HEKA Elektronik Dr. Schulze GmbH). Increasing compound concentrations were applied consecutively to the same cell without washouts in between. Total compound incubation time before the next pulse train was not longer than 10 seconds. Peak current inhibition was observed during compound equilibration.
AUC and peak values were obtained with Patchmaster (HEKA Elektronik Dr. Schulze GmbH). To determine IC50, the last single pulse in the pulse train corresponding to a given compound concentration was used. Obtained AUC and peak values in the presence of compound were normalized to control values in the absence of compound. Using Origin (OridinLab), IC50 was derived from data fit to Hill equation: Icompound/Icontrol=(100−A)/(1+([compound]/IC50)nH)+A, where IC50 value is the concentration at which current inhibition is half-maximal, [compound] is the applied compound concentration, A is the fraction of current that is not blocked and nH is the Hill coefficient.

Molecules are shown by their SMILES.

T1 sequence (P22001 whole entry): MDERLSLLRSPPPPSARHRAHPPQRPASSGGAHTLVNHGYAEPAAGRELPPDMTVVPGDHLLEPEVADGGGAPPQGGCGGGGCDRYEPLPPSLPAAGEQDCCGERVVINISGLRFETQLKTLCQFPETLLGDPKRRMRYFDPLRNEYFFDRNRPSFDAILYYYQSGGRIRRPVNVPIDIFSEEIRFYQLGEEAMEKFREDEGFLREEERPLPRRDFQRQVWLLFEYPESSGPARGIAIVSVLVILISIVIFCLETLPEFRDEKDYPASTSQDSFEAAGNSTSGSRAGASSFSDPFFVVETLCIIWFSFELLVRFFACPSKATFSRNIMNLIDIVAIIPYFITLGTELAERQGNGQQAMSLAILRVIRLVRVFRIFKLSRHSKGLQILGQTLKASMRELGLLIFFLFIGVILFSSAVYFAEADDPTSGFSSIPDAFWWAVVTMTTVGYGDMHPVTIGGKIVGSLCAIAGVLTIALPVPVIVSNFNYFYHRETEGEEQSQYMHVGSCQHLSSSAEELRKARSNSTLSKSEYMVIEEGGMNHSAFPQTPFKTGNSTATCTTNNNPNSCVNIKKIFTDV

Regarding `O=C(C1CNCC(F)(F)C1)N1CC[C@]2(C1)C(=O)Nc1cc(Cl)c(Cl)cc12` (stereo partly drawn) [Compound 50, (3S)-5,6-dichloro-1′-(5,5-difluoropiperidine-3-carbonyl)spiro[indoline-3,3′-pyrrolidin]-2-one], the half-maximal inhibitory concentration (IC50) was < 1 µM.

For `CC(C)C[C@H](N)C(=O)N1CC[C@]2(C1)C(=O)Nc1cc(Cl)c(Cl)cc12` [Compound 45, (S)-1′-(L-leucyl)-5,6-dichlorospiro[indoline-3,3′-pyrrolidin]-2-one], the IC50 was < 3 µM. In the case of `Nc1cc(N2CC[C@]3(C2)C(=O)Nc2cc(Cl)c(Cl)cc23)ncn1` [Compound 148, (S)-1′-(6-aminopyrimidin-4-yl)-5,6-dichlorospiro[indoline-3,3′-pyrrolidin]-2-one], the IC50 was < 3 µM. With `C[C@H]1N(C(=O)CO)CCC12C(=O)Nc1cc(Cl)c(Cl)cc12` (single isomer, unassigned; diastereoisomer 2) [Compound 134, 5,6-dichloro-1′-(2-hydroxyacetyl)-2′-methylspiro[indoline-3,3′-pyrrolidin]-2-one diastereoisomer 2], the IC50 was < 10 µM. For `O=C(c1cn[nH]c1CO)N1CC[C@]2(C1)C(=O)Nc1cc(Cl)c(Cl)cc12` [Compound 80, (S)-5,6-dichloro-1′-(5-(hydroxymethyl)-1H-pyrazole-4-carbonyl)spiro[indoline-3,3′-pyrrolidin]-2-one] the value was < 1 µM. Under `O=C([C@H](O)CO)N1CC[C@]2(C1)C(=O)Nc1cc(Cl)c(Cl)cc12` [Compound 159, (S)-5,6-dichloro-1′-((R)-2,3-dihydroxypropanoyl)spiro[indoline-3,3′-pyrrolidin]-2-one] stands < 3 µM. Consider `NC(=O)N1CC[C@]2(C1)C(=O)Nc1cc(Cl)c(Cl)cc12` (single isomer, unassigned) [Compound 154], for which the IC50 is < 1 µM. Regarding `O=C1Nc2cc(Cl)c(Cl)cc2[C@]12CCN(C(=O)[C@H]1C[C@H](O)C1)C2` [Compound 27, (S)-5,6-dichloro-1′-((1r,3S)-3-hydroxycyclobutane-1-carbonyl)spiro[indoline-3,3′-pyrrolidin]-2-one], the half-inhibitory concentration (IC50) was < 3 µM. For the compound `O=C(C1C[C@H](O)[C@@H](O)C1)N1CC[C@]2(C1)C(=O)Nc1cc(Cl)c(Cl)cc12` (relative stereo) [Compound 106], the IC50 is < 1 µM. With `O=C([C@@H](O)CO)N1CC[C@]2(C1)C(=O)Nc1cc(Cl)c(Cl)cc12` [Compound 157, (S)-5,6-dichloro-1′-((S)-2,3-dihydroxypropanoyl)spiro[indoline-3,3′-pyrrolidin]-2-one], the IC50 was < 1 µM.

`O=C(CO)N1CC[C@@]2(C1)C(=O)Nc1c2cc(Cl)c(Cl)c1Cl` [Compound 122, (3R)-5,6,7-trichloro-1′-(2-hydroxyacetyl)-1H-spiro[indole-3,3′-pyrrolidin]-2-one]: the half-maximal inhibitory concentration (IC50) is < 3 µM. In the case of `C[C@H](O)C(=O)N1CC[C@]2(C1)C(=O)Nc1cc(Cl)c(Cl)cc12` [Compound 12, (S)-5,6-dichloro-1′-((S)-2-hydroxypropanoyl)spiro[indoline-3,3′-pyrrolidin]-2-one], the IC50 is < 3 µM. On to `O=C([C@H]1CNC[C@@H]1O)N1CC[C@]2(C1)C(=O)Nc1cc(Cl)c(Cl)cc12` (single isomer, unassigned) [Compound 4], for which the IC50 is < 1 µM. On to `C[C@H]1C[C@]2(CN1C(=O)CO)C(=O)Nc1cc(Cl)c(Cl)cc12` (single isomer, unassigned; isomer 1) [Compound 123, 5,6-dichloro-1′-(2-hydroxyacetyl)-5′-methyl-1H-spiro[indole-3,3′-pyrrolidin]-2-one isomer 1], for which the IC50 is < 30 µM. Under `O=C(c1ccc(CO)nc1)N1CC[C@]2(C1)C(=O)Nc1cc(Cl)c(Cl)cc12` [Compound 68, (S)-5,6-dichloro-1′-(6-(hydroxymethyl)nicotinoyl)spiro[indoline-3,3′-pyrrolidin]-2-one] stands < 3 µM; under `O=C(Cc1cc[nH]n1)N1CC[C@]2(C1)C(=O)Nc1cc(Cl)c(Cl)cc12` [Compound 73, (S)-1′-(2-(1H-pyrazol-3-yl)acetyl)-5,6-dichlorospiro[indoline-3,3′-pyrrolidin]-2-one], < 3 µM; under `Nc1ccnc(N2CC[C@]3(C2)C(=O)Nc2cc(Cl)c(Cl)cc23)n1` [Compound 139, (S)-1′-(4-aminopyrimidin-2-yl)-5,6-dichlorospiro[indoline-3,3′-pyrrolidin]-2-one], < 1 µM. For `O=C([C@@H]1CC[C@](O)(CO)C1)N1CC[C@]2(C1)C(=O)Nc1cc(Cl)c(Cl)cc12` (single isomer, unassigned; isomer 2) [Compound 98] the value was < 3 µM; for `O=C(N1CC[C@]2(C1)C(=O)Nc1cc(Cl)c(Cl)cc12)[C@]1(F)CCNC1` (single isomer, unassigned; isomer 1) [Compound 28], < 1 µM.

As for `CC(C)[C@@H](N)C(=O)N1CC[C@]2(C1)C(=O)Nc1cc(Cl)c(Cl)cc12` [Compound 46, (S)-1′-(D-valyl)-5,6-dichlorospiro[indoline-3,3′-pyrrolidin]-2-one], the IC50 was < 3 µM. With `C[C@@H](O)CC(=O)N1CC[C@]2(C1)C(=O)Nc1cc(Cl)c(Cl)cc12` [Compound 89, (S)-5,6-dichloro-1′-((R)-3-hydroxybutanoyl)spiro[indoline-3,3′-pyrrolidin]-2-one], the IC50 is < 3 µM. With `COC[C@H]1C[C@@H](C(=O)N2CC[C@]3(C2)C(=O)Nc2cc(Cl)c(Cl)cc23)CN1` [Compound 111, (S)-5,6-dichloro-1′-((3R,5R)-5-(methoxymethyl)pyrrolidine-3-carbonyl)spiro[indoline-3,3′-pyrrolidin]-2-one], the IC50 is < 1 µM. As for `Cc1cc2c(cc1Cl)[C@@]1(CCN(C(=O)CO)C1)C(=O)N2` [Compound 119, (R)-5-chloro-1′-(2-hydroxyacetyl)-6-methylspiro[indoline-3,3′-pyrrolidin]-2-one], the IC50 is < 10 µM. As to `Cn1cc(C(=O)N2CC[C@]3(C2)C(=O)Nc2cc(Cl)c(Cl)cc23)cn1` [Compound 69, (S)-5,6-dichloro-1′-(1-methyl-1H-pyrazole-4-carbonyl)spiro[indoline-3,3′-pyrrolidin]-2-one], the IC50 was < 10 µM. As for `O=C([C@@H]1CCOC1)N1CC[C@]2(C1)C(=O)Nc1cc(Cl)c(Cl)cc12` [Compound 24, (S)-5,6-dichloro-1′-((R)-tetrahydrofuran-3-carbonyl)Spiro[indoline-3,3′-pyrrolidin]-2-one], the IC50 is < 3 µM. In the case of `O=C1Nc2cc(Cl)c(Cl)cc2[C@]12CCN(C(=O)[C@H]1C[C@@H](O)C1)C2` [Compound 25, (S)-5,6-dichloro-1′-((1s,3R)-3-hydroxycyclobutane-1-carbonyl)spiro[indoline-3,3′-pyrrolidin]-2-one], the half-inhibitory concentration (IC50) was < 3 µM. For `Nc1[nH]ncc1C(=O)N1CC[C@]2(C1)C(=O)Nc1cc(Cl)c(Cl)cc12` [Compound 70, (S)-1′-(5-amino-1H-pyrazole-4-carbonyl)-5,6-dichlorospiro[indoline-3,3′-pyrrolidin]-2-one], the IC50 is < 3 µM.

`O=C([C@@H]1CC[C@@H](CO)C1)N1CC[C@]2(C1)C(=O)Nc1cc(Cl)c(Cl)cc12` (single isomer, unassigned; isomer 2) [Compound 100]: the IC50 was < 3 µM. Turning to `O=C(C(CO)CO)N1CC[C@]2(C1)C(=O)Nc1cc(Cl)c(Cl)cc12` [Compound 19, (S)-5,6-dichloro-1′-(3-hydroxy-2-(hydroxymethyl)propanoyl)spiro[indoline-3,3′-pyrrolidin]-2-one], the IC50 was < 3 µM.

On to `O=C1Nc2cc(Cl)c(Cl)cc2[C@]12CCN(c1cn[nH]n1)C2` [Compound 146, (S)-5,6-dichloro-1′-(1H-1,2,3-triazol-4-yl)spiro[indoline-3,3′-pyrrolidin]-2-one], for which the IC50 is < 3 µM. As for `CN1CC(C(=O)N2CC[C@]3(C2)C(=O)Nc2cc(Cl)c(Cl)cc23)CC1=O` (stereo partly drawn) [Compound 81, (3S)-5,6-dichloro-1′-(1-methyl-5-oxopyrrolidine-3-carbonyl)spiro[indoline-3,3′-pyrrolidin]-2-one], the IC50 is < 3 µM.

For `O=C1Nc2cc(Cl)c(Cl)cc2[C@]12CCN(c1c[nH]c(=O)cn1)C2` [Compound 145, (S)-5,6-dichloro-1′-(5-oxo-4,5-dihydropyrazin-2-yl)spiro[indoline-3,3′-pyrrolidin]-2-one], the IC50 was < 1 µM.
